In ChEMBL document CHEMBL1201862, “PubChem BioAssay data set” (2004):
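A five-concentration, 48-hour dose response in 96-well plates underlies each endpoint, interpolated linearly between surrounding concentrations. GI50 is the concentration that inhibits growth by half.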 Calls of active or inactive are those of the source. Rule as the data show it: active = GI50 up to about 1.1 µM and inactive = higher.

How the values were obtained:
Experiment in all cases: growth of human tumour cells (NCI), 48 h
[1] = system: ACHN
[2] = system: CAKI-1
[3] = system: CCRF-CEM
[4] = system: HCT-116
[5] = system: HOP-62
[6] = system: HT-29
[7] = system: K562
[8] = system: LOX IMVI
[9] = system: MDA-N
[10] = system: MOLT-4
[11] = system: NCI-H23
[12] = system: NCI/ADR-RES
[13] = system: OVCAR-3
[14] = system: OVCAR-4
[15] = system: OVCAR-8
[16] = system: RPMI-8226
[17] = system: SF-268
[18] = system: SF-295
[19] = system: SK-MEL-2
[20] = system: T47D

Measured: GI50

Oc1c2ccccc2c2c3c(cccc13)N=N2 [SP-600125]
inactive: [1] 6.64 µM | [2] 3.56 µM | [3] 16.1 µM | [4] 44.6 µM | [5] 69.3 µM | [6] 25.9 µM | [7] 48.6 µM | [8] 12.8 µM | [9] 15 µM | [10] 20.4 µM | [11] 23.8 µM | [12] 22.6 µM | [13] 15.3 µM | [14] 31.9 µM | [15] 22 µM | [16] 18.8 µM | [17] 18.5 µM | [18] 22.5 µM | [19] 29 µM | [20] > 100 µM

N#C/C(N)=C(C#N)/N=C/Nc1ccc(N)cc1
inactive: [1] > 100 µM | [2] > 100 µM | [3] 44.3 µM | [4] > 100 µM | [5] > 100 µM | [6] > 100 µM | [7] > 100 µM | [8] > 100 µM | [9] > 100 µM | [10] > 100 µM | [11] > 100 µM | [12] > 100 µM | [13] > 100 µM | [14] > 100 µM | [15] > 100 µM | [16] > 100 µM | [17] > 100 µM | [18] > 100 µM | [19] > 100 µM | [20] > 100 µM

COc1ccc(-n2c(C)nc3ccc(NC4OC(COC(C)=O)C(OC(C)=O)C(OC(C)=O)C4OC(C)=O)cc3c2=O)cc1 (stereo not drawn)
inactive: [1] > 100 µM | [2] 19.7 µM | [4] 21.8 µM | [5] > 100 µM | [6] 53.3 µM | [7] 36.7 µM | [8] 28.5 µM | [9] 83.4 µM | [10] 27.4 µM | [11] 60.4 µM | [12] > 100 µM | [13] > 100 µM | [14] > 100 µM | [15] 32.9 µM | [16] 27.1 µM | [17] > 100 µM | [18] > 100 µM | [19] > 100 µM | [20] > 100 µM

CC(C)(C)C(=O)N(C(=S)OCc1ccccn1)c1ccccc1
inactive: [1] 38.5 µM | [2] 35.2 µM | [3] 22.6 µM | [4] 23.1 µM | [5] 13.2 µM | [6] 27.6 µM | [7] 36.7 µM | [8] 23.9 µM | [9] 41.6 µM | [10] 18.8 µM | [11] 35.3 µM | [12] 23.1 µM | [13] 30.9 µM | [15] 31.6 µM | [16] 12.2 µM | [17] 36.1 µM | [19] 20.6 µM | [20] 20 µM

Cc1c(/N=N/c2ccccc2)c(C)n(C2OC(CO)C(O)C(O)C2O)c(=S)c1C#N (stereo not drawn)
inactive: [1] 30.5 µM | [2] 40.2 µM | [3] 22.5 µM | [4] 21.1 µM | [5] 25.5 µM | [6] 32.7 µM | [7] 24.4 µM | [8] 22.6 µM | [9] 19.9 µM | [10] 20.8 µM | [11] 27.3 µM | [12] 42.4 µM | [13] 21.6 µM | [14] 45.8 µM | [16] 40.2 µM | [17] 17 µM | [18] 34.5 µM | [19] 16.2 µM | [20] 39.2 µM

N#CCCN(CCCCN(CCC#N)C(=O)Nc1ccccc1)C(=O)Nc1ccccc1
inactive: [1] > 100 µM | [2] > 100 µM | [4] > 100 µM | [5] > 100 µM | [6] > 100 µM | [7] > 100 µM | [8] > 100 µM | [9] > 100 µM | [10] > 100 µM | [11] > 100 µM | [12] > 100 µM | [13] > 100 µM | [14] > 100 µM | [15] > 100 µM | [16] > 100 µM | [17] > 100 µM | [18] > 100 µM | [19] > 100 µM | [20] > 100 µM

COC(=O)C1=CO[C@@H](OC2OC(CO)C(O)C(O)C2O)[C@@H]2[C@H](C)[C@@H](O)[C@@H](O)[C@]12O (stereo partly drawn)
inactive: [1] > 100 µM | [2] 13.4 µM | [3] > 10 µM | [4] > 100 µM | [5] > 100 µM | [6] > 100 µM | [8] > 100 µM | [9] > 100 µM | [10] > 100 µM | [11] > 100 µM | [12] > 100 µM | [13] > 100 µM | [15] > 100 µM | [16] > 100 µM | [17] > 100 µM | [18] > 100 µM | [19] > 100 µM | [20] > 100 µM

COc1ccc(-c2ncnc(-c3ccc(OC)c(OC)c3)n2)cc1OC
inactive: [1] > 100 µM | [2] > 100 µM | [3] > 100 µM | [4] > 100 µM | [5] > 100 µM | [6] > 100 µM | [7] > 100 µM | [8] > 100 µM | [9] > 100 µM | [11] > 100 µM | [12] > 100 µM | [13] > 100 µM | [15] > 100 µM | [16] > 10 µM | [17] > 100 µM | [18] > 100 µM | [19] > 100 µM | [20] > 100 µM

COc1cccc(/C=N/C(/N=C/c2cccc(OC)c2O)c2cccc(OC)c2O)c1O
inactive: [1] 21.5 µM | [2] 19.6 µM | [3] 7 µM | [4] 14.6 µM | [5] 29.4 µM | [6] 24.4 µM | [7] 24.7 µM | [8] 10.5 µM | [9] 26.4 µM | [11] 28.8 µM | [12] 19.6 µM | [13] 11.7 µM | [15] 12.6 µM | [16] 22 µM | [17] 10.6 µM | [18] 23.6 µM | [19] 14.8 µM | [20] 15.2 µM

N=C(CC(=O)NOC(=O)c1ccccc1)NOC(=O)c1ccccc1
inactive: [1] 29.6 µM | [2] 36.9 µM | [3] 38 µM | [4] 38.6 µM | [5] 44.8 µM | [6] > 100 µM | [7] 28.5 µM | [8] 17.7 µM | [9] 33.6 µM | [10] 28.5 µM | [11] 69.7 µM | [12] 25.5 µM | [13] 96.8 µM | [14] 18.3 µM | [15] 27.9 µM | [16] 74.6 µM | [17] 23.2 µM | [18] 18.4 µM | [20] > 100 µM
